What was measured:
Assay type in all cases: cell-based
[1] = system: MDA-MB-435; test: NCI60 growth inhibition, MDA-MB-435; details: Melanoma
Method: (§1) Representative compounds were tested in 60 cell lines (NCI60) at the National Cancer Institute, Developmental Therapeutics Program.
(§2) Representative compounds were tested in a panel of 60 cancer cells (NCI 60) at the National Cancer Institute. Growth inhibition are shown in table 2, table 3, table 4, table 5, and FIG. 1, FIG. 2, FIG. 3, FIG. 4, FIG. 5.

[2] = system: SF-295; test: NCI60 growth inhibition, SF-295; details: CNS Cancer; note: test concentration or dose not given here
Method: as §1, §2

[3] = system: SN12C; test: NCI60 growth inhibition, SN12C; details: Renal Cancer
Method: as §1, §2

[4] = system: SW-620; test: NCI60 growth inhibition, SW-620; details: Colon Cancer; note: test concentration or dose not given here
Method: as §1, §2

[5] = system: SR; test: NCI60 growth inhibition, SR; details: Leukemia
Method: as §1, §2

[6] = system: SNB-19; test: NCI60 growth inhibition, SNB-19; details: CNS Cancer; note: test concentration or dose not given here
Method: as §1, §2

[7] = system: NCI-H322M; test: NCI60 growth inhibition, NCI-H322M; details: Non-Small Cell Lung Cancer
Method: as §1, §2

[8] = system: MDA-MB-468; test: NCI60 growth inhibition, MDA-MB-468; details: Breast Cancer; note: test concentration or dose not given here
Method: as §1, §2

[9] = system: NCI-H522; test: NCI60 growth inhibition, NCI-H522; details: Non-Small Cell Lung Cancer
Method: as §1, §2

[10] = system: HOP-62; test: NCI60 growth inhibition, HOP-62; details: Non-Small Cell Lung Cancer; note: test concentration or dose not given here
Method: as §1, §2

[11] = system: CAKI-1; test: NCI60 growth inhibition, CAKI-1; details: Renal Cancer; note: test concentration or dose not given here
Method: as §1, §2

[12] = system: OVCAR-4; test: NCI60 growth inhibition, OVCAR-4; details: Ovarian Cancer; note: test concentration or dose not given here
Method: as §1, §2

[13] = system: NCI-H460; test: NCI60 growth inhibition, NCI-H460; details: Non-Small Cell Lung Cancer
Method: as §1, §2

[14] = system: T-47D; test: NCI60 growth inhibition, T-47D; details: Breast Cancer
Method: as §1, §2

[15] = system: SNB-75; test: NCI60 growth inhibition, SNB-75; details: CNS Cancer; note: test concentration or dose not given here
Method: as §1, §2

[16] = system: TK-10; test: NCI60 growth inhibition, TK-10; details: Renal Cancer
Method: as §1, §2

[17] = system: HCT-116; test: NCI60 growth inhibition, HCT-116; details: Colon Cancer
Method: as §1, §2

[18] = system: NCI-H23; test: NCI60 growth inhibition, NCI-H23; details: Non-Small Cell Lung Cancer
Method: as §1, §2

[19] = system: SK-MEL-28; test: NCI60 growth inhibition, SK-MEL-28; details: Melanoma
Method: as §1, §2

[20] = system: NCI/ADR-RES; test: NCI60 growth inhibition, NCI/ADR-RES; details: Ovarian Cancer
Method: as §1, §2

[21] = system: KM12; test: NCI60 growth inhibition, KM12; details: Colon Cancer; note: test concentration or dose not given here
Method: as §1, §2

[22] = system: DU-145; test: NCI60 growth inhibition, DU-145; details: Prostate Cancer
Method: as §1, §2

[23] = system: ACHN; test: NCI60 growth inhibition, ACHN; details: Renal Cancer
Method: as §1, §2

[24] = system: MDA-MB-231/ATCC; test: NCI60 growth inhibition, MDA-MB-231/ATCC; details: Breast Cancer
Method: as §1, §2

[25] = system: OVCAR-5; test: NCI60 growth inhibition, OVCAR-5; details: Ovarian Cancer
Method: as §1, §2

[26] = system: PC-3; test: NCI60 growth inhibition, PC-3; details: Prostate Cancer
Method: as §1, §2

[27] = system: HT29; test: NCI60 growth inhibition, HT29; details: Colon Cancer
Method: as §1, §2

[28] = system: COLO 205; test: NCI60 growth inhibition, COLO 205; details: Colon Cancer
Method: as §1, §2

[29] = system: HCT-15; test: NCI60 growth inhibition, HCT-15; details: Colon Cancer; note: test concentration or dose not given here
Method: as §1, §2

**Q.** `O=C1c2cccnc2C(=O)c2nc3cc(N4CCN(C5CC5)CC4)ccc3nc21` [Compound 49, 9-(4-cyclopropylpiperazin-1-yl)pyrido[2,3-b]phenazine-5,12-dione] was tested. Which “Growth inhibition (% control) GIPRCNT” value [1] did it give?
**A.** Its value is −87.4148 % control.

**Q.** What about the “Growth inhibition (% control) GIPRCNT” value [2] of the same compound?
**A.** The value was −88.89 % control.

**Q.** What about the “Growth inhibition (% control) GIPRCNT” value [3] of the same compound?
**A.** The value was −94.7287 % control.

**Q.** And the “Growth inhibition (% control) GIPRCNT” value [4]?
**A.** Its value is −37.75 % control.

**Q.** What about the “Growth inhibition (% control) GIPRCNT” value [5] of the same compound?
**A.** The value was −10.03 % control.

**Q.** What about the “Growth inhibition (% control) GIPRCNT” value [6] of the same compound?
**A.** The value was −81.52 % control.

**Q.** What about the “Growth inhibition (% control) GIPRCNT” value [7] of the same compound?
**A.** Its value is −96.67 % control.

**Q.** What about the “Growth inhibition (% control) GIPRCNT” value [8] of the same compound?
**A.** The value was −21.9933 % control.

**Q.** And the “Growth inhibition (% control) GIPRCNT” value [9]?
**A.** Its value is −50.54 % control.

**Q.** What about the “Growth inhibition (% control) GIPRCNT” value [10] of the same compound?
**A.** Its value is −56.64 % control.

**Q.** And the “Growth inhibition (% control) GIPRCNT” value [11]?
**A.** The value was −5.268 % control.

**Q.** What about the “Growth inhibition (% control) GIPRCNT” value [12] of the same compound?
**A.** The value was −87.768 % control.

**Q.** And the “Growth inhibition (% control) GIPRCNT” value [13]?
**A.** The value was −54.12 % control.

**Q.** What about the “Growth inhibition (% control) GIPRCNT” value [14] of the same compound?
**A.** Its value is 22.46 % control.

**Q.** What about the “Growth inhibition (% control) GIPRCNT” value [15] of the same compound?
**A.** Its value is −64.69 % control.

**Q.** And the “Growth inhibition (% control) GIPRCNT” value [16]?
**A.** The value was 0.1224 % control.

**Q.** And the “Growth inhibition (% control) GIPRCNT” value [17]?
**A.** The value was 0.8509 % control.

**Q.** And the “Growth inhibition (% control) GIPRCNT” value [18]?
**A.** Its value is −56.52 % control.

**Q.** And the “Growth inhibition (% control) GIPRCNT” value [19]?
**A.** Its value is −76.8851 % control.

**Q.** And the “Growth inhibition (% control) GIPRCNT” value [20]?
**A.** Its value is 20.15 % control.

**Q.** And the “Growth inhibition (% control) GIPRCNT” value [21]?
**A.** The value was 9.272 % control.

**Q.** What about the “Growth inhibition (% control) GIPRCNT” value [22] of the same compound?
**A.** Its value is −75.9298 % control.

**Q.** And the “Growth inhibition (% control) GIPRCNT” value [23]?
**A.** Its value is −35.0589 % control.

**Q.** What about the “Growth inhibition (% control) GIPRCNT” value [24] of the same compound?
**A.** The value was 15.11 % control.

**Q.** And the “Growth inhibition (% control) GIPRCNT” value [25]?
**A.** Its value is −82.2933 % control.

**Q.** What about the “Growth inhibition (% control) GIPRCNT” value [26] of the same compound?
**A.** Its value is 11.58 % control.

**Q.** What about the “Growth inhibition (% control) GIPRCNT” value [27] of the same compound?
**A.** The value was −21.31 % control.

**Q.** And the “Growth inhibition (% control) GIPRCNT” value [28]?
**A.** Its value is −68.34 % control.

**Q.** And the “Growth inhibition (% control) GIPRCNT” value [29]?
**A.** Its value is −58.81 % control.

Source: patent US20220162167A1, “SUBSTITUTED BICYCLIC AND TETRACYCLIC QUINONES AND USE THEREOF AS ANTI-CANCER AGENTS” (THE REGENTS OF THE UNIVERSITY OF MICHIGAN, priority 2019, published 2022)
